From ChEMBL document CHEMBL3044536, “The synthesis, anti-inflammatory, and anti-microbial activity evaluation of new series of 4-(3-arylureido)phenyl-1,4-dihydropyridine urea derivatives” (2013)
≈ marks a conversion by molar mass, not a printed value. Calls of active or inactive are those of the source. The rule behind the calls is not given here.

Tests used:
Bacillus subtilis [1] = assay: Antibacterial activity against Bacillus subtilis; assay type: functional
Staphylococcus aureus [2] = assay: Antibacterial activity against Staphylococcus aureus; assay type: functional
Fusarium solani [3] = assay: Antifungal activity against Fusarium solani; assay type: functional
Escherichia coli [4] = assay: Antibacterial activity against Escherichia coli; assay type: functional
Aspergillus flavus [5] = assay: Antifungal activity against Aspergillus flavus; assay type: functional
Salmonella typhimurium [6] = assay: Antibacterial activity against Salmonella enterica subsp. enterica serovar Typhimurium; assay type: functional
THP-1 [7] = assay: Anti-inflammatory activity in Homo sapiens (human) THP1 cells assessed as inhibition of LPS-induced TNFalpha production at 10 uM incubated for 30 min prior to LPS-challenge measured after 24 hr by ELISA; assay type: functional
THP-1 [8] = assay: Anti-inflammatory activity in Homo sapiens (human) THP1 cells assessed as inhibition of LPS-induced IL6 production at 10 uM incubated for 30 min prior to LPS-challenge measured after 24 hr by ELISA; assay type: functional
Candida albicans [9] = assay: Antifungal activity against Candida albicans; assay type: functional
Aspergillus niger [10] = assay: Antifungal activity against Aspergillus niger; assay type: functional
Aspergillus niger [11] = assay: Antifungal activity against Aspergillus niger up to 200 ug/ml; assay type: functional, organism-based
Bacillus subtilis [12] = assay: Antibacterial activity against Bacillus subtilis up to 200 ug/ml; assay type: functional, organism-based
Staphylococcus aureus [13] = assay: Antibacterial activity against Staphylococcus aureus up to 200 ug/ml; assay type: functional, organism-based
Fusarium solani [14] = assay: Antifungal activity against Fusarium solani up to 200 ug/ml; assay type: functional, organism-based
Aspergillus flavus [15] = assay: Antifungal activity against Aspergillus flavus up to 200 ug/ml; assay type: functional, organism-based
Bacillus subtilis [16] = assay: Ratio of ciprofloxacin MIC to compound MIC for Bacillus subtilis; assay type: functional
Escherichia coli [17] = assay: Ratio of ciprofloxacin MIC to compound MIC for Escherichia coli; assay type: functional
Staphylococcus aureus [18] = assay: Ratio of ciprofloxacin MIC to compound MIC for Staphylococcus aureus; assay type: functional
Salmonella typhimurium [19] = assay: Ratio of ciprofloxacin MIC to compound MIC for Salmonella enterica subsp. enterica serovar Typhimurium; assay type: functional
Aspergillus niger [20] = assay: Antifungal activity against Aspergillus niger relative to miconazole; assay type: functional
Candida albicans [21] = assay: Antifungal activity against Candida albicans relative to miconazole; assay type: functional
Fusarium solani [22] = assay: Antifungal activity against Fusarium solani relative to miconazole; assay type: functional
Aspergillus flavus [23] = assay: Antifungal activity against Aspergillus flavus relative to miconazole; assay type: functional
Candida albicans [24] = assay: Antifungal activity against Candida albicans up to 200 ug/ml; assay type: functional, organism-based
THP-1 [25] = assay: Anti-inflammatory activity in Homo sapiens (human) THP1 cells assessed as inhibition of LPS-induced IL6 production at 1 uM incubated for 30 min prior to LPS-challenge measured after 24 hr by ELISA; assay type: functional
THP-1 [26] = assay: Anti-inflammatory activity in Homo sapiens (human) THP1 cells assessed as inhibition of LPS-induced TNFalpha production at 1 uM incubated for 30 min prior to LPS-challenge measured after 24 hr by ELISA; assay type: functional

Compound	MIC (Bacillus subtilis [1])	MIC (Staphylococcus aureus [2])	MIC (Fusarium solani [3])	MIC (Escherichia coli [4])	MIC (Aspergillus flavus [5])	MIC (Salmonella typhimurium [6])	inhibition at 10 µM (THP-1 [7])	inhibition at 10 µM (THP-1 [8])	MIC (Candida albicans [9])	MIC (Aspergillus niger [10])	also measured
CCOC(=O)C1=C(C)NC(C)=C(C(=O)OCC)C1c1ccc(NC(=O)Nc2ccc(C(F)(F)F)cc2)cc1	85 µg/mL (≈ 160 µM)	60 µg/mL (≈ 113 µM)	90 µg/mL (≈ 169 µM)	90 µg/mL (≈ 169 µM)	70 µg/mL (≈ 132 µM)	90 µg/mL (≈ 169 µM)	74%	86%	45 µg/mL (≈ 84.7 µM)	55 µg/mL (≈ 103 µM)	
CCOC(=O)C1=C(C)NC(C)=C(C(=O)OCC)C1c1ccc(N)cc1	85 µg/mL (≈ 247 µM)	60 µg/mL (≈ 174 µM)	90 µg/mL (≈ 261 µM)	40 µg/mL (≈ 116 µM)	90 µg/mL (≈ 261 µM)	45 µg/mL (≈ 131 µM)	0%	0%	90 µg/mL (≈ 261 µM)		Activity (Aspergillus niger [11]): inactive
CCOC(=O)C1=C(C)NC(C)=C(C(=O)OCC)C1c1ccc(NC(=O)Nc2ccc(Cl)cc2)cc1	80 µg/mL (≈ 161 µM)	65 µg/mL (≈ 131 µM)	20 µg/mL (≈ 40.2 µM)	20 µg/mL (≈ 40.2 µM)	20 µg/mL (≈ 40.2 µM)	35 µg/mL (≈ 70.3 µM)	0%	18%	30 µg/mL (≈ 60.2 µM)	20 µg/mL (≈ 40.2 µM)	
CCOC(=O)C1=C(C)NC(C)=C(C(=O)OCC)C1c1ccc(NC(=O)Nc2cc(F)ccc2F)cc1				70 µg/mL (≈ 140 µM)		90 µg/mL (≈ 180 µM)	78%	96%	85 µg/mL (≈ 170 µM)	90 µg/mL (≈ 180 µM)	Activity (Bacillus subtilis [12]): inactive; Activity (Staphylococcus aureus [13]): inactive; Activity (Fusarium solani [14]): inactive; Activity (Aspergillus flavus [15]): inactive
CCOC(=O)C1=C(C)NC(C)=C(C(=O)OCC)C1c1ccc(NC(=O)Nc2ccc(F)cc2F)cc1	50 µg/mL (≈ 100 µM)	45 µg/mL (≈ 90.1 µM)	20 µg/mL (≈ 40 µM)	25 µg/mL (≈ 50 µM)	35 µg/mL (≈ 70.1 µM)	25 µg/mL (≈ 50 µM)	28%	54%	35 µg/mL (≈ 70.1 µM)	20 µg/mL (≈ 40 µM)	Ratio (Bacillus subtilis [16]): 2; Ratio (Escherichia coli [17]): 2; Ratio (Staphylococcus aureus [18]): 2; Ratio (Salmonella typhimurium [19]): 2
CCOC(=O)C1=C(C)NC(C)=C(C(=O)OCC)C1c1ccc(NC(=O)Nc2ccc(F)cc2)cc1	80 µg/mL (≈ 166 µM)	40 µg/mL (≈ 83.1 µM)	85 µg/mL (≈ 177 µM)	65 µg/mL (≈ 135 µM)	85 µg/mL (≈ 177 µM)	65 µg/mL (≈ 135 µM)	42%	68%	65 µg/mL (≈ 135 µM)	45 µg/mL (≈ 93.5 µM)	
CCOC(=O)C1=C(C)NC(C)=C(C(=O)OCC)C1c1ccc(NC(=O)Nc2ccc(C#N)cc2)cc1	10 µg/mL (≈ 20.5 µM)	10 µg/mL (≈ 20.5 µM)	25 µg/mL (≈ 51.2 µM)	15 µg/mL (≈ 30.7 µM)	20 µg/mL (≈ 40.9 µM)	10 µg/mL (≈ 20.5 µM)	0%	8%	20 µg/mL (≈ 40.9 µM)	10 µg/mL (≈ 20.5 µM)	Activity (Aspergillus niger [20]): >50%; Activity (Candida albicans [21]): >50%; Activity (Fusarium solani [22]): >50%; Ratio (Bacillus subtilis [16]): 2; Activity (Aspergillus flavus [23]): >50%; Ratio (Escherichia coli [17]): 2; Ratio (Staphylococcus aureus [18]): 2; Ratio (Salmonella typhimurium [19]): 2
CCOC(=O)C1=C(C)NC(C)=C(C(=O)OCC)C1c1ccc(NC(=O)Nc2ccc(Cl)cc2C(F)(F)F)cc1	70 µg/mL (≈ 124 µM)	55 µg/mL (≈ 97.2 µM)	60 µg/mL (≈ 106 µM)	45 µg/mL (≈ 79.5 µM)	80 µg/mL (≈ 141 µM)	60 µg/mL (≈ 106 µM)	83%	91%	50 µg/mL (≈ 88.3 µM)	85 µg/mL (≈ 150 µM)	
CCOC(=O)C1=C(C)NC(C)=C(C(=O)OCC)C1c1ccc(NC(=O)Nc2cc(C(F)(F)F)ccc2Cl)cc1		80 µg/mL (≈ 141 µM)	90 µg/mL (≈ 159 µM)	65 µg/mL (≈ 115 µM)	90 µg/mL (≈ 159 µM)	90 µg/mL (≈ 159 µM)	0%	12%	65 µg/mL (≈ 115 µM)	45 µg/mL (≈ 79.5 µM)	Activity (Bacillus subtilis [12]): inactive
CCOC(=O)C1=C(C)NC(C)=C(C(=O)OCC)C1c1ccc([N+](=O)[O-])cc1		90 µg/mL (≈ 240 µM)	90 µg/mL (≈ 240 µM)	90 µg/mL (≈ 240 µM)		90 µg/mL (≈ 240 µM)	0%	0%			Activity (Bacillus subtilis [12]): inactive; Activity (Candida albicans [24]): inactive; Activity (Aspergillus flavus [15]): inactive; Activity (Aspergillus niger [11]): inactive
O=C(O)c1cn(C2CC2)c2cc(N3CCNCC3)c(F)cc2c1=O [CIPROFLOXACIN]	25 µg/mL (≈ 75.4 µM)	20 µg/mL (≈ 60.4 µM)		20 µg/mL (≈ 60.4 µM)		25 µg/mL (≈ 75.4 µM)					
CCOC(=O)C1=C(C)NC(C)=C(C(=O)OCC)C1c1ccc(NC(=O)Nc2ccc(Cl)cc2Cl)cc1	35 µg/mL (≈ 65.7 µM)	20 µg/mL (≈ 37.6 µM)	25 µg/mL (≈ 47 µM)	10 µg/mL (≈ 18.8 µM)	20 µg/mL (≈ 37.6 µM)	20 µg/mL (≈ 37.6 µM)	11%	24%	15 µg/mL (≈ 28.2 µM)	10 µg/mL (≈ 18.8 µM)	
C[C@@H]1C[C@H]2[C@@H]3CCC4=CC(=O)C=C[C@]4(C)[C@@]3(F)[C@@H](O)C[C@]2(C)[C@@]1(O)C(=O)CO [DEXAMETHASONE]											inhibition at 1 µM (THP-1 [25]): 80%; inhibition at 1 µM (THP-1 [26]): 71%
CCOC(=O)C1=C(C)NC(C)=C(C(=O)OCC)C1c1ccc(NC(=O)Nc2cc(Cl)ccc2Cl)cc1	25 µg/mL (≈ 47 µM)	15 µg/mL (≈ 28.2 µM)	10 µg/mL (≈ 18.8 µM)	15 µg/mL (≈ 28.2 µM)	20 µg/mL (≈ 37.6 µM)	15 µg/mL (≈ 28.2 µM)	36%	51%	10 µg/mL (≈ 18.8 µM)	30 µg/mL (≈ 56.3 µM)	Activity (Aspergillus niger [20]): >50%; Activity (Candida albicans [21]): >50%; Activity (Fusarium solani [22]): >50%; Activity (Aspergillus flavus [23]): >50%
Clc1ccc(COC(Cn2ccnc2)c2ccc(Cl)cc2Cl)c(Cl)c1 (stereo unspecified) [MICONAZOLE]			15 µg/mL (≈ 36 µM)		20 µg/mL (≈ 48.1 µM)				25 µg/mL (≈ 60.1 µM)	20 µg/mL (≈ 48.1 µM)	
